For one series, the target named is T1, OATP1A2 (Homo sapiens, UniProt P46721).
T1 construct: gene SLCO1A2
T1 sequence (P46721 1-670): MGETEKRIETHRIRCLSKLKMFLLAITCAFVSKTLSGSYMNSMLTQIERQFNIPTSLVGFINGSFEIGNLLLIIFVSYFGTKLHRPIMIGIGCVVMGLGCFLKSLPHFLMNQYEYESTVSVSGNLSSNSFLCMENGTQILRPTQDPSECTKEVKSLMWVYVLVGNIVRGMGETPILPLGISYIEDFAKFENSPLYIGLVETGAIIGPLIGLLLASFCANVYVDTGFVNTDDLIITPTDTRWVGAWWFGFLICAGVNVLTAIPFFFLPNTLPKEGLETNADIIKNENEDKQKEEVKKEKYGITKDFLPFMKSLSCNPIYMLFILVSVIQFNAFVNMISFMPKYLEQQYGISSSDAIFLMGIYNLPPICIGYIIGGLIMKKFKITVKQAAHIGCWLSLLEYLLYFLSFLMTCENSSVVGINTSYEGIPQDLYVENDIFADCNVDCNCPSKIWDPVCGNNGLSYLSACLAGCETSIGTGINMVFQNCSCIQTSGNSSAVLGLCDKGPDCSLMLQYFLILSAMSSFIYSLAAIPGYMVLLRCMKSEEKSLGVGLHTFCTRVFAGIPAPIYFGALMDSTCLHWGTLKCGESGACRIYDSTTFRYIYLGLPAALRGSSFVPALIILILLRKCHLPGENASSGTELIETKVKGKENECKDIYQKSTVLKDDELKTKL
The series can be described thus: R123 uptake in BacMam-transduced HEK293-MSRII cells (Km). In kind it is cell-based.

For another series, the target named is ABCB1 (MDR1) (Homo sapiens, UniProt P08183). The series can be described thus: R123 efflux from MDCKII-ABCB1 versus naive MDCKII cells (Km). The format is cell-based. Conditions: mdck.
Sequence of ABCB1 (MDR1) (P08183 whole entry): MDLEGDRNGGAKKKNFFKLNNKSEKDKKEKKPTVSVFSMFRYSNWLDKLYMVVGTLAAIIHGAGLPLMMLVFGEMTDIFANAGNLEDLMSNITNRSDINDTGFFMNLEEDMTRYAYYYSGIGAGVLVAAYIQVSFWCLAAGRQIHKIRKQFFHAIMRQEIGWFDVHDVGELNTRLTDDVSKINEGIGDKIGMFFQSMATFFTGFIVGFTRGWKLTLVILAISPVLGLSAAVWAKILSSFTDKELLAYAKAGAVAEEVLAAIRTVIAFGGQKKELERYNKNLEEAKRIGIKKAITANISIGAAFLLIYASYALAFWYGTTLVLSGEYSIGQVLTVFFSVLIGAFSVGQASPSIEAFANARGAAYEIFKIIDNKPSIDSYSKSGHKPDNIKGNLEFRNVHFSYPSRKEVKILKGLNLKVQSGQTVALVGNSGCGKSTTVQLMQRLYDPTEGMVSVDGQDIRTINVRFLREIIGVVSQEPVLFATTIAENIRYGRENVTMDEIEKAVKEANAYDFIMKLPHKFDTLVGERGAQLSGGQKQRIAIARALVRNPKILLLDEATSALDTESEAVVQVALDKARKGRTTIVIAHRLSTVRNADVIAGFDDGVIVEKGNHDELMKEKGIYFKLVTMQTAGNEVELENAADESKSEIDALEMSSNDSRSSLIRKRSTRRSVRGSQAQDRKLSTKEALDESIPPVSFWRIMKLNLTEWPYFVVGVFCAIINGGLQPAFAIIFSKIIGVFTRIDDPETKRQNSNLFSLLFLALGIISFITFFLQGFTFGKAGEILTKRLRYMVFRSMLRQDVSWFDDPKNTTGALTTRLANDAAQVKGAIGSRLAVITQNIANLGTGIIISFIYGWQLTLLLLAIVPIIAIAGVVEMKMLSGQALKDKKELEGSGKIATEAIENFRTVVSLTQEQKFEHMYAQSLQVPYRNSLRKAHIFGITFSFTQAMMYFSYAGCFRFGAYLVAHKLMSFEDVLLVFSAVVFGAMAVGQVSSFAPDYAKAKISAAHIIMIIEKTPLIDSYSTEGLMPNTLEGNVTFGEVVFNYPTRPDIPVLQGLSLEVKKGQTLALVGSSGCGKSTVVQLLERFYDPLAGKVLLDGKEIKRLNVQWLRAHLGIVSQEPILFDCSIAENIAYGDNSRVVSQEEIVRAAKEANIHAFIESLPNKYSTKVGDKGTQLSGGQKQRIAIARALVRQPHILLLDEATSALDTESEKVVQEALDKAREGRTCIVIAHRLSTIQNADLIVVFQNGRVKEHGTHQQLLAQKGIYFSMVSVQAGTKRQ

By Km is commonly meant the substrate concentration at which the rate is half of its maximum. For `COC(=O)c1ccccc1-c1c2ccc(=N)cc-2oc2cc(N)ccc12` [R123, Rhodamine 123], the values for the Km at OATP1A2 and on ABCB1 (MDR1) were 0.3 ± 0.1 µM and 17.5 ± 2.8 µM, respectively.

(Values after PMC3314654, “Characterization of Rhodamine-123 as a Tracer Dye for Use In In vitro Drug Transport Assays” (PLoS ONE, 2012).)
